Test results as given in US9586961B2, “Homopiperazine derivatives as protein tyrosine kinase inhibitors and pharmaceutical use thereof” (LEO PHARMA A/S, priority 2010, dated 2017).

Columns and labels:
Format in all cases: biochemical
JAK2 = target: T1, JAK2 (Homo sapiens, UniProt O60674); assay: JAK2 kinase assay (HTRF, inhibition of phosphorylation of a synthetic peptide); conditions: catalytic domain, His-tag; 4 μM ATP (Km); read-out: JAK2 kinase inhibitory activity (EC50)
T1 construct: All four purified enzymes contain only the catalytic domain; His (N); purchased Carna Biosciences, Inc; host or cells: baculovirus expression system
In short: (§1)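 HTRF detection (streptavidin-XL665, cryptate anti-phospho antibody, overnight in the dark) after EDTA stop of a 20-30 min RT reaction on 1 μM TK substrate-biotin. Km-level ATP per kinase: 7 μM for JAK1 and 13 μM for TYK2, both N-terminal GST, with 50 nM SEB; 4 μM for JAK2 and 2 μM for JAK3, both His-tagged. Catalytic domains only; DMSO 0.75%.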

JAK3 = target: T2, JAK3 (Homo sapiens, UniProt P52333); assay: JAK3 kinase assay (HTRF, inhibition of phosphorylation of a synthetic peptide); conditions: catalytic domain, His-tag; 2 μM ATP (Km); read-out: JAK3 kinase inhibitory activity (EC50)
T2 construct: All four purified enzymes contain only the catalytic domain; His (N); purchased Carna Biosciences, Inc; host or cells: baculovirus expression system
In short: as §1

JAK1 = target: T3, JAK1 (Homo sapiens, UniProt P23458); assay: JAK1 kinase assay (HTRF, inhibition of phosphorylation of a synthetic peptide); conditions: catalytic domain aa 850-1154, GST-tag; 7 μM ATP (Km); read-out: JAK1 kinase inhibitory activity (EC50)
T3 construct: JAK1 (aa 850-1154) and TYK2 (aa 871-1187) are expressed with an N-terminally fused GST-tag; GST (N); purchased Carna Biosciences, Inc; host or cells: baculovirus expression system
In short: as §1

T3 sequence (P23458 850-1154): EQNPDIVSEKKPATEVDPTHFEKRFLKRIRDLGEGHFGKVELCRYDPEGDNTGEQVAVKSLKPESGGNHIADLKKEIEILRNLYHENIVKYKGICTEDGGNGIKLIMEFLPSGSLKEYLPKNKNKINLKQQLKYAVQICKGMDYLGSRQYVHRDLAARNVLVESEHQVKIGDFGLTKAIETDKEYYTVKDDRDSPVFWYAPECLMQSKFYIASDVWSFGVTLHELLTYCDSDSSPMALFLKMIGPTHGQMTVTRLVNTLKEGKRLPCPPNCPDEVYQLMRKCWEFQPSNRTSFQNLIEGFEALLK
T2 sequence (P52333 822-1111 limits assumed): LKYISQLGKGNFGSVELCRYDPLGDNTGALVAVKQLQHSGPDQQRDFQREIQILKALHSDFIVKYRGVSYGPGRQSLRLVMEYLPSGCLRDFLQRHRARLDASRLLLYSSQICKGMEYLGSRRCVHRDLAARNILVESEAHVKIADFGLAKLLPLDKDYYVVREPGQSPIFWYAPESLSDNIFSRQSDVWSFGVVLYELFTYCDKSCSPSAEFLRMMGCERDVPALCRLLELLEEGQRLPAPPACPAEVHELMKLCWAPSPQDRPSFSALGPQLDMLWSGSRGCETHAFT
T1 sequence (O60674 849-1124 limits assumed): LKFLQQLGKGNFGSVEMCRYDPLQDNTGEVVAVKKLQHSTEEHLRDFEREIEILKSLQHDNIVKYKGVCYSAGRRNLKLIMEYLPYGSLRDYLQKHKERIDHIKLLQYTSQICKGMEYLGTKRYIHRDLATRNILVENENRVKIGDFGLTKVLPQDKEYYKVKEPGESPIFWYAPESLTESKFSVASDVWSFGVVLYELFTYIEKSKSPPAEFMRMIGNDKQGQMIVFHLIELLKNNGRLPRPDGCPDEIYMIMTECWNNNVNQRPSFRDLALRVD

| SMILES | EC50 (JAK2) [µM] | EC50 (JAK3) [µM] | EC50 (JAK1) [µM] |
| --- | --- | --- | --- |
| Cc1cc(C(=O)N2CCN(c3ncnc4[nH]ccc34)CC3(CC3)C2)ccn1 [Example 171, (2-methyl-4-pyridyl)-[5-(7H-pyrrolo[2,3-d]pyrimidin-4-yl)-5,8-diazaspiro[2.6]nonan-8-yl]methanone] | > 1 | > 1 | 0.1 to 1 |
| Cc1noc(C)c1C(=O)N1CCCN(c2ncnc3[nH]ccc23)CC12CC2 [Example 199, (3,5-dimethylisoxazol-4-yl)-[5-(7H-pyrrolo[2,3-d]pyrimidin-4-yl)-5,9-diazaspiro[2.6]nonan-9-yl]methanone] | > 1 | > 1 | > 1 |
| Cc1noc(C)c1C(=O)N1CCN(c2ncnc3[nH]ccc23)CC2(CC2)C1 [Example 170, (3,5-dimethylisoxazol-4-yl)-[5-(7H-pyrrolo[2,3-d]pyrimidin-4-yl)-5,8-diazaspiro[2.6]nonan-8-yl]methanone] | > 1 | > 1 | > 1 |
| O=C(c1cnco1)N1CCN(c2ncnc3[nH]ccc23)CC2(CC2)C1 [Example 155, oxazol-5-yl-[5-(7H-pyrrolo[2,3-d]pyrimidin-4-yl)-5,8-diazaspiro[2.6]nonan-8-yl]methanone] | 0.1 to 1 | 0.1 to 1 | 0.1 to 1 |
| CCN(CCC#N)C(=O)N1CCN(c2ncnc3[nH]ccc23)CC2(CC2)C1 [Example 224, N-(2-cyanoethyl)-N-ethyl-5-(7H-pyrrolo[2,3-d]pyrimidin-4-yl)-5,8-diazaspiro[2.6]nonane-8-carboxamide] | 0.1 to 1 | 0.1 to 1 | > 1 |
| CC(=O)Nc1ccc(CC(=O)N2CCN(c3ncnc4[nH]ccc34)CC3(CC3)C2)cc1 [Example 276] | 0.1 to 1 | > 1 | 0.1 to 1 |
| Cc1cncc(C(=O)N2CCCN(c3ncnc4[nH]ccc34)CC23CC3)n1 [Example 198, (6-methylpyrazin-2-yl)-[5-(7H-pyrrolo[2,3-d]pyrimidin-4-yl)-5,9-diazaspiro[2.6]nonan-9-yl]methanone] | 0.1 to 1 | > 1 | 0.1 to 1 |
| Cc1cc(C(=O)N2CCCN(c3ncnc4[nH]ccc34)CC23CC3)sn1 [Example 234, (3-methylisothiazol-5-yl)-[5-(7H-pyrrolo[2,3-d]pyrimidin-4-yl)-5,9-diazaspiro[2.6]nonan-9-yl]methanone] | 0.1 to 1 | > 1 | > 1 |
| O=C(c1cnsn1)N1CCN(c2ncnc3[nH]ccc23)CC2(CC2)C1 [Example 202, [5-(7H-pyrrolo[2,3-d]pyrimidin-4-yl)-5,8-diazaspiro[2.6]nonan-8-yl]-(1,2,5-thiadiazol-3-yl)methanone] | 0.1 to 1 | 0.1 to 1 | 0.1 to 1 |
| Cc1nnsc1C(=O)N1CCCN(c2ncnc3[nH]ccc23)CC12CC2 [Example 147, (4-methylthiadiazol-5-yl)-[5-(7H-pyrrolo[2,3-d]pyrimidin-4-yl)-5,9-diazaspiro[2.6]nonan-9-yl]methanone] | 0.1 to 1 | > 1 | 0.1 to 1 |
| O=C(c1ccncn1)N1CCN(c2ncnc3[nH]ccc23)CC2(CC2)C1 [Example 165, pyrimidin-4-yl-[5-(7H-pyrrolo[2,3-d]pyrimidin-4-yl)-5,8-diazaspiro[2.6]nonan-8-yl]methanone] | 0.1 to 1 | > 1 | > 1 |
| Cc1[nH]ncc1C(=O)N1CCN(c2ncnc3[nH]ccc23)CC2(CC2)C1 [Example 206, (5-methyl-1H-pyrazol-4-yl)-[5-(7H-pyrrolo[2,3-d]pyrimidin-4-yl)-5,8-diazaspiro[2.6]nonan-8-yl]methanone] | 0.1 to 1 | 0.1 to 1 | 0.1 to 1 |
| Cc1ncsc1CC(=O)N1CCN(c2ncnc3[nH]ccc23)CC2(CC2)C1 [Example 246, 2-(4-methylthiazol-5-yl)-1-[5-(7H-pyrrolo[2,3-d]pyrimidin-4-yl)-5,8-diazaspiro[2.6]nonan-8-yl]ethanone] | 0.1 to 1 | > 1 | 0.1 to 1 |

Results, then the compound that gave them:

| EC50 (JAK2) [µM] | EC50 (JAK3) [µM] | EC50 (JAK1) [µM] | SMILES |
| --- | --- | --- | --- |
| 0.1 to 1 | > 1 | 0.1 to 1 | Cc1noc(C)c1CC(=O)N1CCN(c2ncnc3[nH]ccc23)CC2(CC2)C1 [Example 249, 2-(3,5-dimethylisoxazol-4-yl)-1-[5-(7H-pyrrolo[2,3-d]pyrimidin-4-yl)-5,8-diazaspiro[2.6]nonan-8-yl]ethanone] |
| 0.1 to 1 | 0.1 to 1 | 0.1 to 1 | O=C(Cc1cnc[nH]1)N1CCN(c2ncnc3[nH]ccc23)CC2(CC2)C1 [Example 89, 2-(1H-imidazol-5-yl)-1-[5-(7H-pyrrolo[2,3-d]pyrimidin-4-yl)-5,8-diazaspiro[2.6]nonan-8-yl]ethanone] |
| < 0.1 | 0.1 to 1 | < 0.1 | Cc1cc(C(=O)N2CCCN(c3ncnc4[nH]ccc34)CC23CC3)on1 [Example 122, (3-methylisoxazol-5-yl)-[5-(7H-pyrrolo[2,3-d]pyrimidin-4-yl)-5,9-diazaspiro[2.6]nonan-9-yl]methanone] |
| 0.1 to 1 | 0.1 to 1 | 0.1 to 1 | O=C(c1cncs1)N1CCN(c2ncnc3[nH]ccc23)CC2(CC2)C1 [Example 239, [5-(7H-pyrrolo[2,3-d]pyrimidin-4-yl)-5,8-diazaspiro[2.6]nonan-8-yl]-thiazol-5-yl-methanone] |
| < 0.1 | > 1 | 0.1 to 1 | O=C(Cc1ccc(F)cc1)N1CCCN(c2ncnc3[nH]ccc23)CC12CC2 [Example 159, 2-(4-fluorophenyl)-1-[5-(7H-pyrrolo[2,3-d]pyrimidin-4-yl)-5,9-diazaspiro[2.6]nonan-9-yl]ethanone] |
| 0.1 to 1 | > 1 | 0.1 to 1 | O=C(c1ccnnc1)N1CCN(c2ncnc3[nH]ccc23)CC2(CC2)C1 [Example 139, pyridazin-4-yl-[5-(7H-pyrrolo[2,3-d]pyrimidin-4-yl)-5,8-diazaspiro[2.6]nonan-8-yl]methanone] |
| 0.1 to 1 | 0.1 to 1 | 0.1 to 1 | O=C(c1c[nH]nn1)N1CCN(c2ncnc3[nH]ccc23)CC2(CC2)C1 [Example 204, [5-(7H-pyrrolo[2,3-d]pyrimidin-4-yl)-5,8-diazaspiro[2.6]nonan-8-yl]-(1H-triazol-4-yl)methanone] |
| < 0.1 | 0.1 to 1 | 0.1 to 1 | N#Cc1cc(CC(=O)N2CCN(c3ncnc4[nH]ccc34)CC3(CC3)C2)ccc1F [Example 273, 2-fluoro-5-[2-oxo-2-[5-(7H-pyrrolo[2,3-d]pyrimidin-4-yl)-5,8-diazaspiro[2.6]nonan-8-yl]ethyl]benzonitrile] |
| 0.1 to 1 | 0.1 to 1 | 0.1 to 1 | CCCC1=NOC(C(=O)N2CCCN(c3ncnc4[nH]ccc34)CC23CC3)C1 (stereo not drawn) [Example 124, (3-propyl-4,5-dihydroisoxazol-5-yl)-[5-(7H-pyrrolo[2,3-d]pyrimidin-4-yl)-5,9-diazaspiro[2.6]nonan-9-yl]methanone] |
| 0.1 to 1 | > 1 | 0.1 to 1 | Cc1cc(C(=O)N2CCN(c3ncnc4[nH]ccc34)CC3(CC3)C2)sn1 [Example 233, (3-methylisothiazol-5-yl)-[5-(7H-pyrrolo[2,3-d]pyrimidin-4-yl)-5,8-diazaspiro[2.6]nonan-8-yl]methanone] |
| < 0.1 | 0.1 to 1 | 0.1 to 1 | O=C(c1ccc(F)cc1)N1CCCN(c2ncnc3[nH]ccc23)CC12CC2 [Example 114, (4-fluorophenyl)-[5-(7H-pyrrolo[2,3-d]pyrimidin-4-yl)-5,9-diazaspiro[2.6]nonan-9-yl]methanone] |
| 0.1 to 1 | > 1 | > 1 | Cc1ncccc1C(=O)N1CCCN(c2ncnc3[nH]ccc23)CC12CC2 [Example 136, (2-methyl-3-pyridyl)-[5-(7H-pyrrolo[2,3-d]pyrimidin-4-yl)-5,9-diazaspiro[2.6]nonan-9-yl]methanone] |
| < 0.1 | 0.1 to 1 | 0.1 to 1 | CN(CC#N)C(=O)N1CCN(c2ncnc3[nH]ccc23)CC2(CC2)C1 [Example 218, N-(cyanomethyl)-N-methyl-5-(7H-pyrrolo[2,3-d]pyrimidin-4-yl)-5,8-diazaspiro[2.6]nonane-8-carboxamide] |
| 0.1 to 1 | 0.1 to 1 | 0.1 to 1 | O=C(c1cc(O)[nH]n1)N1CCCN(c2ncnc3[nH]ccc23)CC12CC2 [Example 212, (5-hydroxy-1H-pyrazol-3-yl)-[5-(7H-pyrrolo[2,3-d]pyrimidin-4-yl)-5,9-diazaspiro[2.6]nonan-9-yl]methanone] |
| < 0.1 | 0.1 to 1 | 0.1 to 1 | O=C(Cc1ccccc1)N1CCN(c2ncnc3[nH]ccc23)CC2(CC2)C1 [Example 259, 2-phenyl-1-[5-(7H-pyrrolo[2,3-d]pyrimidin-4-yl)-5,8-diazaspiro[2.6]nonan-8-yl]ethanone] |
| < 0.1 | 0.1 to 1 | < 0.1 | Cc1nonc1CC(=O)N1CCN(c2ncnc3[nH]ccc23)CC2(CC2)C1 [Example 251, 2-(4-methyl-1,2,5-oxadiazol-3-yl)-1-[5-(7H-pyrrolo[2,3-d]pyrimidin-4-yl)-5,8-diazaspiro[2.6]nonan-8-yl]ethanone] |
